Data set [1] deals with T1, Cholinesterase (Equus caballus, UniProt P81908). The data set can be described thus: Inhibition of equine serum BuChE using butyrylthiocholine iodide as substrate pretreated 60 mins followed by substrate addition by Ellman's method. In general terms: In Ellman's method for cholinesterases, released thiocholine reacts with DTNB.
The target in data set [2] is T2, Acetylcholinesterase (Homo sapiens, UniProt P22303). In words: Inhibition of human acetylcholinesterase using acetylthiocholine as substrate pretreated followed by substrate addition and measured after 15 mins by Ellman's method.
For data set [3], the target named is T1, Cholinesterase. The data set can be described thus: Inhibition of equine serum BuChE using butyrylthiocholine iodide as substrate pretreated followed by substrate addition and measured after 2 mins by Ellman's method.
For another data set, the species on record is Homo sapiens. The data set can be described thus: Selectivity index, ratio of IC50 for human AChE to IC50 for human BuChE.
Data set [4] concerns the target T3, Acetylcholinesterase (Electrophorus electricus, UniProt O42275). In words: Inhibition of electric eel AChE using acetylthiocholine iodide as substrate pretreated followed by substrate addition and measured after 2 mins by Ellman's method.
Data set [5] has as its target T4, Cholinesterase (Homo sapiens, UniProt P06276). The data set can be described thus: Inhibition of human butyrylcholinesterase using butyrylthiocholine iodide as substrate pretreated followed by substrate addition and measured after 15 mins by Ellman's method.
Data set [6] has as its target T2, Acetylcholinesterase.
Data set [7] concerns the target T4, Cholinesterase. In words: Inhibition of human butyrylcholinesterase.
Data set [8] deals with Rattus norvegicus. In words: In vivo inhibition of MAO-B in Sprague-Dawley rat at 26 mg/kg, po administered for 2 weeks by radioassay method relative to control. Format: functional. Particulars: 336 h.
For data set [9], the system named is Rattus norvegicus. The data set can be described thus: In vivo inhibition of MAO-A in Sprague-Dawley rat at 26 mg/kg, po administered for 2 weeks by radioassay method relative to control. Format: functional. The note with it: 336 h.
Data set [10] can be described thus: Cytotoxicity against human HepG2 cells assessed as cell viability at 1000 uM by MTT assay relative to control. The note with it: read-out: Activity. Format: cell-based.
Data set [11] has as its target T4, Cholinesterase. In words: Inhibition of human serum butyrylcholinesterase using butyrylthiocholine iodide as substrate preincubated for 20 mins followed by substrate addition preincubated for 20 mins followed by substrate addition by Ellman's method.
The nature of data set [12]: Antioxidant activity assessed as AAPH radical scavenging activity measured every min for 60 mins by ORAC-FL assay relative to trolox. Format: functional.
Data set [13] concerns the target T5, Acetylcholinesterase (Rattus norvegicus, UniProt P37136).
T5 sequence (P37136 whole entry): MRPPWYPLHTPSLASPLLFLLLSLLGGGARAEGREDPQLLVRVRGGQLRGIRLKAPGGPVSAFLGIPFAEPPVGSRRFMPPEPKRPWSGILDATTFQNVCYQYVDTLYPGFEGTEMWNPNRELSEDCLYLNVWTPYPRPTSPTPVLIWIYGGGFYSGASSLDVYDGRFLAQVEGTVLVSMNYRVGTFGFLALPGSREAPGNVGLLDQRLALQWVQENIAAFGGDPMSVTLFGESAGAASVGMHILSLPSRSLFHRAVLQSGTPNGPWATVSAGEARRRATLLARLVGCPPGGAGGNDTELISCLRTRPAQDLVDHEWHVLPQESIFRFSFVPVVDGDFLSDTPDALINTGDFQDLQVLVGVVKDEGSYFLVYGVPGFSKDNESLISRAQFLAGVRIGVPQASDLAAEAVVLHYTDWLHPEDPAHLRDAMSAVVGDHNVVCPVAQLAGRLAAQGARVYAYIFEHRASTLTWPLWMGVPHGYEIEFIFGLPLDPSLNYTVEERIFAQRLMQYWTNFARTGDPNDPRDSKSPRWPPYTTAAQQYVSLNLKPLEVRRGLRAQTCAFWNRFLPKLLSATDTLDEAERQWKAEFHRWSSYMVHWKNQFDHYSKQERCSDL
In words: Antagonist activity at Acetylcholinesterase in Sprague-Dawley rat phrenic nerve-hemidiaphragm assessed as reversal of d-tubocurarine induced neuromuscular blockade after 15 mins. The note with it: read-out: I50.

For data set [14], the target named is T6, Acetylcholinesterase (Bos taurus, UniProt P23795).
T6 sequence (P23795 whole entry): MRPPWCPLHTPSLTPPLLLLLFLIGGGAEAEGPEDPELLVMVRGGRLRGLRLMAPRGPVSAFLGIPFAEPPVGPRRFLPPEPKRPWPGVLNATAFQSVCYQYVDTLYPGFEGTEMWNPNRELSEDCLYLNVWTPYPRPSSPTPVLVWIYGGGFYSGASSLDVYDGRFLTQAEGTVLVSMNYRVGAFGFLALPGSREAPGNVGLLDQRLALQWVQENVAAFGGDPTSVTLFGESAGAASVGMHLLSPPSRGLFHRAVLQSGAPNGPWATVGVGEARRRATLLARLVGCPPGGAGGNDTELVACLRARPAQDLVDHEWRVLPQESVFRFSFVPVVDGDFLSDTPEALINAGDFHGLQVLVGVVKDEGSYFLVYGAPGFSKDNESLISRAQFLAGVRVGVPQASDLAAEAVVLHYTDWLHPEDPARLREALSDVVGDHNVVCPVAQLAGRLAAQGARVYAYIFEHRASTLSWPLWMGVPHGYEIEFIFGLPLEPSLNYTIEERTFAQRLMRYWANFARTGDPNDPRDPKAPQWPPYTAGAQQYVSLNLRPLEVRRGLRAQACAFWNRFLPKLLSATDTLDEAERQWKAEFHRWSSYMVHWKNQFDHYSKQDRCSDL
Description: Inhibition of bovine erythrocyte acetylcholinesterase using acetylthiocholine as substrate by Ellman's method

For data set [15], the target named is 5-hydroxytryptamine receptor 1A (Homo sapiens, UniProt P08908). In words: Agonist activity at human 5H1A receptor expressed in HEK293 cells incubated for 60 mins by Eu-cAMP tracer based LANCE ultra cAMP assay. Format: functional, cell-based.
Data set [16] deals with T5, Acetylcholinesterase. In words: Inhibition of rat cortex acetylcholinesterase using acetylthiocholine iodide as substrate incubated for 20 mins by Ellman's method.
The target in data set [17] is Sodium-dependent serotonin transporter (Homo sapiens, UniProt P31645). In words: Inhibition of SERT (unknown origin) expressed in HEK293 cells assessed as reduction in 5-HT reuptake incubated for 30 mins followed by centrifugation for 15 secs and measured after 30 mins. Format: cell-based.
The target in data set [18] is T3, Acetylcholinesterase. In words: Inhibition of electric eel AChE using acetylthiocholine iodide as substrate preincubated for 6 mins followed by substrate addition and measured up to 180 secs by Ellman's method.
Data set [19] has as its target T2, Acetylcholinesterase. In words: Inhibition of AChE (unknown origin)-induced human amyloid beta 1 to 40 aggregation at 100 uM by thioflavin-T fluorescence method relative to control.
Data set [20] addresses T1, Cholinesterase. The data set can be described thus: Inhibition of equine serum BuChE using S-butyrylthiocholine iodide as substrate preincubated for 6 mins followed by substrate addition and measured up to 180 secs by Ellman's method.
For data set [21], the target named is T2, Acetylcholinesterase. The data set can be described thus: Inhibition of human erythrocyte acetylcholinesterase using acetylthiocholine as substrate preincubated for 60 mins followed by substrate addition by Ellman's method.
The target of data set [22] is T4, Cholinesterase. In words: Inhibition of human plasma butyrylcholinesterase by Ellman's method.
Data set [23] addresses T2, Acetylcholinesterase. The data set can be described thus: biochemical.
Description: Inhibition of human acetylcholinesterase expressed in HEK 293 cells using acetylthiocholine iodide as substrate by Ellman's method
The target of data set [24] is Amyloid-beta precursor protein (Homo sapiens) (UniProt P05067). The data set can be described thus: Inhibition of HFIP pretreated amyloid beta (1-42) (unknown origin) self aggregation at 20 uM incubated for 48 hrs by thioflavin T based fluorescence assay relative to control.
The nature of data set [25]: Antioxidant activity assessed as trolox equivalent of AAPH radical scavenging activity at 10 uM preincubated for 10 mins followed by APPH addition and measured every min for 120 mins by ORAC-FL assay relative to trolox. Format: functional.

T4 sequence (P06276 whole entry): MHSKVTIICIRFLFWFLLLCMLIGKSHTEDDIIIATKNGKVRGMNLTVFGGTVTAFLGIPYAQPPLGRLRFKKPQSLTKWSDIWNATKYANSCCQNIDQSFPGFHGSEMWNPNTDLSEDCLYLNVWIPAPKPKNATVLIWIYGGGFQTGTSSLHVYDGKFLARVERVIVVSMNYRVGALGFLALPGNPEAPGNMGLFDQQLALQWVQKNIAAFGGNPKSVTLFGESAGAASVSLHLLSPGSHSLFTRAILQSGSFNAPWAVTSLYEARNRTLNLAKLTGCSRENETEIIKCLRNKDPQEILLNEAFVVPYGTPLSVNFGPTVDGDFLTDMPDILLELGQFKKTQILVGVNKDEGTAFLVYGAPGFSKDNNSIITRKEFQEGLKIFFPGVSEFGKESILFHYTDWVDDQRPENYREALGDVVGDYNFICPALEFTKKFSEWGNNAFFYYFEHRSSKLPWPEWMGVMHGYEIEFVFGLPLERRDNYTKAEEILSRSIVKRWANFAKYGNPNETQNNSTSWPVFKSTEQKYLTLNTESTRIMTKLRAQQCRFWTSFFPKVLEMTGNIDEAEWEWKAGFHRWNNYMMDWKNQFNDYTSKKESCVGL
T2 sequence (P22303 whole entry): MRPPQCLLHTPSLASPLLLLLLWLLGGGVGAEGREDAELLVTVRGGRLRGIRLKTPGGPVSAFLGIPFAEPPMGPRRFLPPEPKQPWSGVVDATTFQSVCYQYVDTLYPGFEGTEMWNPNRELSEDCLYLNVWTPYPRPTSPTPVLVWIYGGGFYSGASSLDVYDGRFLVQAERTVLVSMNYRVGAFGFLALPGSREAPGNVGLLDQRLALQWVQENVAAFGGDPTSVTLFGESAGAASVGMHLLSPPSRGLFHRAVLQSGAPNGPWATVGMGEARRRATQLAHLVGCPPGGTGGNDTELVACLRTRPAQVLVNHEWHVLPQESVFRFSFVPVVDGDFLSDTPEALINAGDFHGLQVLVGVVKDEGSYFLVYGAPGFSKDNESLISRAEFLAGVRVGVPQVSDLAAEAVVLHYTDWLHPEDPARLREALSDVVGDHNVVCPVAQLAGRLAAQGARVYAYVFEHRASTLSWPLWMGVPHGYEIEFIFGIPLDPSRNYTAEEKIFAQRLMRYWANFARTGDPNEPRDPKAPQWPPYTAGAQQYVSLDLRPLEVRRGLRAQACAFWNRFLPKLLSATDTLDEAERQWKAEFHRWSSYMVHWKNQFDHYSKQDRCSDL
T1 sequence (P81908 whole entry): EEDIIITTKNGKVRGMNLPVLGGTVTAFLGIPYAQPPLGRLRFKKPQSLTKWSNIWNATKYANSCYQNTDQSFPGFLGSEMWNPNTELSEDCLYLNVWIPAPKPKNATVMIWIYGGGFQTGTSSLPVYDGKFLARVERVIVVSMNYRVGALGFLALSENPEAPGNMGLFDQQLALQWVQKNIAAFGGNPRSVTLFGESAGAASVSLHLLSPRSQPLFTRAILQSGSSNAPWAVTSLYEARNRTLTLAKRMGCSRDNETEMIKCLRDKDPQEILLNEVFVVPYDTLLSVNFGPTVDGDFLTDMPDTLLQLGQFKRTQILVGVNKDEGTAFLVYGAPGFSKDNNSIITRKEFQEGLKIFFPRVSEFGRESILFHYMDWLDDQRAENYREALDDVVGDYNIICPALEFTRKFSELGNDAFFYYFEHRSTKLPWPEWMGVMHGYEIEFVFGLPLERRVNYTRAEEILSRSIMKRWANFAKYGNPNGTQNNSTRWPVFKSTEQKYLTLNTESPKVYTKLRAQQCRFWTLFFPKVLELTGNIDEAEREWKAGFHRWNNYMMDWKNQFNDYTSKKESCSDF
T3 sequence (O42275 whole entry): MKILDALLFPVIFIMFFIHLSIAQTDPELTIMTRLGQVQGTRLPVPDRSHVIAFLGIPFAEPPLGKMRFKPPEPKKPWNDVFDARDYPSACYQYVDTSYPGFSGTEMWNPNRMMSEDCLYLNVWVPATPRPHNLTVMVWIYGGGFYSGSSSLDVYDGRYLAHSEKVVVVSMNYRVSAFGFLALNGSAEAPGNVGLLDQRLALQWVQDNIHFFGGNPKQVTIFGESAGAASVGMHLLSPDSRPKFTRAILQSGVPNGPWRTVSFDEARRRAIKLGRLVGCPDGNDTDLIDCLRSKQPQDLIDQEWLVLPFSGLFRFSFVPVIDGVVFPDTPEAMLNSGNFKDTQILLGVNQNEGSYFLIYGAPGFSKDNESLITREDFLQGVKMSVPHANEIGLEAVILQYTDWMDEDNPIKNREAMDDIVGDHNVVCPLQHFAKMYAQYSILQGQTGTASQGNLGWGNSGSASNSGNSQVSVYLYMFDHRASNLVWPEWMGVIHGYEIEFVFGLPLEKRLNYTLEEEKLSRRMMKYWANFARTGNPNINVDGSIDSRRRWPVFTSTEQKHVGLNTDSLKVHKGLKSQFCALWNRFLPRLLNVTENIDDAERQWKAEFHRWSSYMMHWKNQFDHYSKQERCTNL
Sequence of Amyloid-beta precursor protein (Homo sapiens) (P05067 whole entry): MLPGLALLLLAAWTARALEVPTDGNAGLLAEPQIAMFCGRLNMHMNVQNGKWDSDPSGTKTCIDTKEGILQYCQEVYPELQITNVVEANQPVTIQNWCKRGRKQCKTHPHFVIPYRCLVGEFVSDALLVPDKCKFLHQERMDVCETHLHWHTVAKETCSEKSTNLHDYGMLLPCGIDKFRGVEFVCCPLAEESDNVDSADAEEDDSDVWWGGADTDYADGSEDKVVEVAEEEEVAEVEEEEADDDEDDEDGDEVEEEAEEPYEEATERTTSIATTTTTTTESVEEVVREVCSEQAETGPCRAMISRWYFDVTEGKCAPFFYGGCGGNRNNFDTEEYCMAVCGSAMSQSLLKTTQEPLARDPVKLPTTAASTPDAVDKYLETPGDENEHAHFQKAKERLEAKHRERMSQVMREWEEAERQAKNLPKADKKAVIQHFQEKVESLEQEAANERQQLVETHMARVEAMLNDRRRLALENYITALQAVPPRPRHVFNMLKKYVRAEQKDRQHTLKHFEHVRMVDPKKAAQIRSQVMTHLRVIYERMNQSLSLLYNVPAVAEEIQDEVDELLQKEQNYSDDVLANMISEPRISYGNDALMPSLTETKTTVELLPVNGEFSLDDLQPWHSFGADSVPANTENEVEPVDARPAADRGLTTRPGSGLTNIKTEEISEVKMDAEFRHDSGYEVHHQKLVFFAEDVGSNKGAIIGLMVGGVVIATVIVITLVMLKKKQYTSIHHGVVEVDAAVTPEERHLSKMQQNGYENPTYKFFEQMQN
Sequence of Sodium-dependent serotonin transporter (P31645 whole entry): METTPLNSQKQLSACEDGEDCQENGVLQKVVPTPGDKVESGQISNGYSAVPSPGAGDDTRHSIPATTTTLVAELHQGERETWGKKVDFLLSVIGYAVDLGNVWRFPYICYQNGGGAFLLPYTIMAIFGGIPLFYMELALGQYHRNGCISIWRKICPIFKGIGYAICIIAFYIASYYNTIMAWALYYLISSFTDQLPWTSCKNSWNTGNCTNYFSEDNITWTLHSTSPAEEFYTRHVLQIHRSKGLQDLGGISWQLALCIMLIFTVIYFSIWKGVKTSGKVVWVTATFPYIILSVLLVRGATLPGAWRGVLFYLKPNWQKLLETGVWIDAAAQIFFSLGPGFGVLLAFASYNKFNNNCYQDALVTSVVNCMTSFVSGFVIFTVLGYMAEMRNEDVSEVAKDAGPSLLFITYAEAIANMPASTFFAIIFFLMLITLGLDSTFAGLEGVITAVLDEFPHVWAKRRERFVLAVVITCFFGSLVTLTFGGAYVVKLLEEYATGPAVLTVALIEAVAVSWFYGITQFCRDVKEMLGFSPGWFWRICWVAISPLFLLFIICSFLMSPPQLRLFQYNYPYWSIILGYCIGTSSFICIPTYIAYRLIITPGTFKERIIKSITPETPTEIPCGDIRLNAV
Sequence of 5-hydroxytryptamine receptor 1A (P08908 whole entry): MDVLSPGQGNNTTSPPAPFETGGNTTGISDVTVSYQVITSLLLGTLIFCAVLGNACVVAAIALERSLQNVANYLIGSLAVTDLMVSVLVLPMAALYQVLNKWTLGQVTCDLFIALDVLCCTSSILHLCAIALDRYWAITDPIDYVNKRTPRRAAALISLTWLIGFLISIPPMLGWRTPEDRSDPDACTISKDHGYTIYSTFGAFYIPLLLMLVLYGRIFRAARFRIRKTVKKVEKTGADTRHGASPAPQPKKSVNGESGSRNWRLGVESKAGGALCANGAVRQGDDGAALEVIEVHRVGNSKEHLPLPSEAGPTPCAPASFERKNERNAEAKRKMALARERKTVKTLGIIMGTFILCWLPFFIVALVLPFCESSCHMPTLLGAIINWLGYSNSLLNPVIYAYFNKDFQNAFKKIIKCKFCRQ

In the case of `C#CCN(C)C(C)Cc1cccc(OC(=O)N(C)CCCCCC)c1` (racemic), at Cholinesterase [1], the IC50 came to 720 nM.

On to `O=C(/C=C/c1ccc(OCc2ccccc2)cc1)NCCNc1c2c(nc3ccccc13)CCCC2`, for which the IC50 on Acetylcholinesterase [2] turned out to be 60.6 nM; at Cholinesterase [3], 42.6 nM; on Acetylcholinesterase [4], 29.5 nM; at Cholinesterase [5], 86.1 nM. Further, the Selectivity Index in the data set listed under Homo sapiens is 0.7.

For `COc1ccc2[nH]cc(CCNC(=O)CN(CCCC3CCN(Cc4ccccc4)CC3)C(=O)/C=C/c3ccc(O)c(OC)c3)c2c1`, the figures for the IC50 at Acetylcholinesterase [6] and against Cholinesterase [7] were 26.2 nM and 17.5 nM, respectively.

Take `C#CCN[C@@H]1CCc2ccc(OC(=O)N(C)CC)cc21` [LADOSTIGIL]: the results for the inhibition in vivo at 26 mg/kg in the data set on Rattus norvegicus [8] and in the data set on Rattus norvegicus [9] were 71% and 66%, respectively.

With `COc1ccc2nc3c(c(NCCCCCCCCN(CC(=O)Nc4ccc5ccccc5c4)C(=O)/C=C/c4ccc(O)c(OC)c4)c2c1)CCCC3`, the viability at 1000 µM in data set [10] worked out at 59.4%. The compound also gave an IC50 at Cholinesterase [11] of 68.2 nM. In addition, the Ratio in [12] worked out at 4.29.

Consider `CC1=C[C@@H]2Cc3nc4cc(F)ccc4c(N)c3[C@H](C1)C2` (racemic), for which the IC50 amounted to 8 nM on Acetylcholinesterase [13] and 85 nM at Acetylcholinesterase [14].

`N#Cc1ccc2[nH]cc(CCCCN3CCN(c4c5c(nc6ccccc46)CCC5)CC3)c2c1` yielded an EC50 in data set [15] of 107 nM. The IC50 worked out at 3320 nM against Acetylcholinesterase [16] and 76.3 nM in data set [17].

For the compound `O=C(NCCCCCCNc1c2c(nc3ccccc13)CCCC2)c1cc(O)c2c(c1)C(=O)c1cccc(O)c1C2=O`, the figures for the IC50 against Acetylcholinesterase [18] and on Cholinesterase [20] were 27.3 nM and 200 nM, respectively. This compound also came in with an inhibition at Acetylcholinesterase [19] of 70.2%.

For `C#CCN(C)C(C)Cc1cccc(OC(=O)N(C)CCCCCC)c1` (single isomer, unassigned; (-)), at Acetylcholinesterase [21], the IC50 stood at 3400 nM.

On to `O=C(c1ccc(OCCCc2cnc[nH]2)cc1)C1CC1` [CIPROXIFAN], for which the IC50 was determined as 77300 nM against Cholinesterase [22] and 86100 nM on Acetylcholinesterase [23].

Take `C/C=C1\C2C=C(C)CC1c1c(nc3ccccc3c1N)C2` (racemic): at Acetylcholinesterase [14], the IC50 stood at 320 nM.

For the compound `Oc1ccc(/C=C/c2cc(O)c3ncccc3c2)cc1`, the inhibition in data set [24] was 71.7%. Further, the Ratio (umolequiv/umol) in [25] stood at 2.18.

As a reminder, the inhibition in vivo is the relative decrease from the control value, in per cent. The low end stands for a response near the control, the high end for a response far below the control. One may read the EC50 as the concentration giving half of the maximal effect. Read a high EC50 as a less potent agent. By inhibition is commonly meant the relative decrease from the control value, in per cent.
